Legend:
[1] = Change in mouse weight, A549 xenograft, intraperitoneal administration; type: in vivo, nude mouse; parameters: Change in mouse weight: unit not given here; details: once a day; for difference in body weight according to the administration of the drugs: day 2 to day 23
Experimental: The Tr-9 was dissolved in sterile PBS and 1 mM Tr-9 200 µℓ was intraperitoneally administered per mouse once a day, and all animals were weighed immediately before the start of drug (Tr-9) administration and 10 times in total from day 2 to day 23 after cancer cell transplantation (Table 4).
In Table 4 above, data values are the mean ± standard deviation. After measuring the body weight, the animals were killed using CO2 gas, and the tumor was separated and the size was measured in 3 directions using a vernier caliper for each animal. Then, the change in tumor size was expressed as a calculated value of (length × width × height)/2 (Table 4).

[2] = tested on: human colorectal cancer cells (HCT116); experiment: Nude mouse xenograft model of human colorectal cancer cells, intraperitoneal administration; type: in vivo; details: for tumor size compared to the control group: after day 14
Experimental: Anticancer activity against colorectal cancer according to the intraperitoneal administration of Tr-9 was confirmed through a nude mouse xenograft model of human colorectal cancer cells (HCT116). In Example 5, Example 4 was repeated except for using colorectal cancer cells.
Specific pathogen-free (SPF) nude mice of the BALB/C strain were used as the animal model. Animals were bred in the animal room of Daedeok Campus of Hannam University maintained at a temperature of 23±3° C., relative humidity of 55±15%, ventilation frequency of 10-20 times/hr, lighting time of 12 hours(lights on at 8 am and off at 8 pm) and illuminance of 150 to 300 Lux.
For cancer cell transplantation, all cells were collected and counted on the last day of culture, and the concentration of human colorectal cancer cell line HCT116 was adjusted to 5×10^6 cells/ml using PBS. The adjusted cell culture solution was injected subcutaneously into the auxiliary region between the right scapula and chest wall at 0.2 ml (1×10^6 cells/mouse) per mouse.
The Tr-9 was dissolved in sterile PBS and 1 mM Tr-9 200 µℓ was intraperitoneally administered per mouse once a day, and all animals were weighed immediately before the start of drug (Tr-9) administration and 9 times in total from day 2 to day 21 after cancer cell transplantation (Table 7).
In Table 7 above, data values are the mean ± standard deviation. After measuring the body weight, the animals were killed using CO2 gas, and the tumor was separated and the size was measured in 3 directions using a vernier caliper for each animal. Then, the change in tumor size was expressed as a calculated value of (length × width × height)/2 (Table 8).
Tumor size increase is (Δt)═ Vt—Vo, wherein Vt is the value of measuring the tumor size by date, and Vo is the value of measuring the initial tumor size.

[3] = tested on: Lung cancer(A549) cell line; experiment: WST-1 assay, cell viability of lung cancer cell line; type: cell-based, human; details: 10-100 µg/Mℓ, 24 hours, FIG. 3
Experimental: (§1) The cytotoxicity of the Tr-9 compound to six cancer cell lines was confirmed. Lung cancer(A549), gastric cancer(AGS), liver cancer(Hep3B)), breast cancer(MDA-MB-231), colorectal cancer(HCT116) and pancreatic cancer(BxPC-3) cell lines and fibroblasts were aliquoted in a 96-well plate in an amount of 5×10^3 cells/well, and the novel compound Tr-9 was treated thereto at a concentration of 10, 20, 40, 60, 80, 100 µg/Mℓ for 24 hours, respectively. Lung cancer cell line was further treated at a concentration of 100 µg/Mℓ for 24 hours, 48 hours and 72 hours.
(§2) Then, the amount of living cells was measured using WST(high sensitive Water Soluble Tetrazolium salt). WST reacts with dehydrogenase in living cells and produces orange-colored watersoluble formazan. Since dehydrogenase that reacts with WST is an enzyme present in the mitochondrial electron transport chain of metabolically active cells and is effective only in living cells, the production of formazan is proportional to the number of living cells. Therefore, the absorbance at 450 nm was measured to confirm the cell viability through the formation of formazan.

[4] = tested on: liver cancer(Hep3B) cell line; experiment: WST-1 assay, cell viability of liver cancer cell line; type: cell-based; details: 10-100 µg/Mℓ, 24 hours, FIG. 6
Experimental: as §1, §2

[5] = tested on: breast cancer(MDA-MB-231) cell line; experiment: WST-1 assay, cell viability of breast cancer cell line; type: cell-based; details: 10-100 µg/Mℓ, 24 hours, FIG. 5
Experimental: as §1, §2

[6] = tested on: colorectal cancer(HCT116) cell line; experiment: WST-1 assay, cell viability of colorectal cancer cell line; type: cell-based, human; details: 10-100 µg/Mℓ, 24 hours, FIG. 7
Experimental: as §1, §2

[7] = tested on: pancreatic cancer(BxPC-3) cell line; experiment: WST-1 assay, cell viability of pancreatic cancer cell line; type: cell-based; details: 10-100 µg/Mℓ, 24 hours, FIG. 8
Experimental: as §1, §2

[8] = tested on: gastric cancer(AGS) cell line; experiment: WST-1 assay, cell viability of gastric cancer cell line; type: cell-based; details: 10-100 µg/Mℓ, 24 hours, FIG. 4
Experimental: as §1, §2

Human fibroblast = experiment: WST-1 assay, cell viability of fibroblasts (normal cells); type: cell-based; details: 10-100 µg/Mℓ, 24 hours, FIG. 9
Experimental: as §1, §2

[9] = intraperitoneal once a day, Day 0, table title: Change in tumor size
[10] = intraperitoneal once a day, Day 2, table title: Change in tumor size
[11] = intraperitoneal once a day, Day 2, vs control
[12] = intraperitoneal once a day, Day 5, table title: Change in tumor size
[13] = intraperitoneal once a day, Day 5, vs control
[14] = intraperitoneal once a day, Day 7, table title: Change in tumor size
[15] = intraperitoneal once a day, Day 7, vs control
[16] = intraperitoneal once a day, Day 9, table title: Change in tumor size
[17] = intraperitoneal once a day, Day 9, vs control
[18] = intraperitoneal once a day, Day 11, table title: Change in tumor size
[19] = intraperitoneal once a day, Day 11, vs control
[20] = intraperitoneal once a day, Day 14, table title: Change in tumor size
[21] = intraperitoneal once a day, Day 14, vs control
[22] = intraperitoneal once a day, Day 16, table title: Change in tumor size
[23] = intraperitoneal once a day, Day 16, vs control
[24] = intraperitoneal once a day, Day 18, table title: Change in tumor size
[25] = intraperitoneal once a day, Day 18, vs control
[26] = intraperitoneal once a day, Day 21
[27] = intraperitoneal once a day, Day 21, table title: Change in tumor size
[28] = intraperitoneal once a day, Day 21, vs control

## C/C=C(/C)C(=O)O[C@@H]1C[C@H](C)[C@H]2CC(=O)C(C)=C2C[C@@H]1C(C)(C)OC(C)=O [Torilin, torilin, reference compound]
[1]; 0 Day after drug treatment
  Change in mouse weight: 100.0 ±0.0
[1]; 2 Days after drug treatment
  Change in mouse weight: 98.2 ±1.5
[1]; 5 Days after drug treatment
  Change in mouse weight: 98.2 ±1.4
[1]; 7 Days after drug treatment
  Change in mouse weight: 97.6 ±1.0
[1]; 9 Days after drug treatment
  Change in mouse weight: 102.7 ±2.7
[1]; 12 Days after drug treatment
  Change in mouse weight: 101.0 ±3.1
[1]; 14 Days after drug treatment
  Change in mouse weight: 101.2 ±2.6
[1]; 16 Days after drug treatment
  Change in mouse weight: 102.3 ±3.8
[1]; 19 Days after drug treatment
  Change in mouse weight: 103.4 ±5.2
[1]; 21 Days after drug treatment
  Change in mouse weight: 102.9 ±4.1
[1]; 23 Days after drug treatment
  Change in mouse weight: 105.0 ±4.6
[1]
  difference in body weight according to the administration of the drugs: almost no difference in body weight
[2]; [9]
  Tumor size increase (Vt−V0): 0.0±0.0
[2]; [10]
  Tumor size increase (Vt−V0): 54.7±16.2
[2]; [11]
  Inhibition rate (tumor size increase): 17.4%
[2]; [12]
  Tumor size increase (Vt−V0): 151.4±33.3
[2]; [13]
  Inhibition rate (tumor size increase): 16.3%
[2]; [14]
  Tumor size increase (Vt−V0): 362.7±59.4
[2]; [15]
  Inhibition rate (tumor size increase): 18.9%
[2]; [16]
  Tumor size increase (Vt−V0): 565.9±142.4
[2]; [17]
  Inhibition rate (tumor size increase): 19.1%
[2]; [18]
  Tumor size increase (Vt−V0): 816.9±248.1
[2]; [19]
  Inhibition rate (tumor size increase): 20.6%
[2]; [20]
  Tumor size increase (Vt−V0): 1086.2±458.4
[2]; [21]
  Inhibition rate (tumor size increase): 21.2%
[2]; [22]
  Tumor size increase (Vt−V0): 1319.9±614.0
[2]; [23]
  Inhibition rate (tumor size increase): 26.5%
[2]; [24]
  Tumor size increase (Vt−V0): 1555.6±640.5
[2]; [25]
  Inhibition rate (tumor size increase): 24.0%
[2]; [26]
  Tumor weight at Day 21: 2.85 ± 0.834 g
  Tumor weight reduction rate compared to control group: 25.9%
[2]; [27]
  Tumor size increase (Vt−V0): 1973.3±821.1
[2]; [28]
  Inhibition rate (tumor size increase): 25.2%
[2]; intraperitoneal
  tumor size compared to the control group: statistically significantly smaller

## CC(=O)OC(C)(C)C1CC2=C(C)C(=O)CC2C(C)CC1OC(=O)CC(C)C (stereo not drawn) [Tr-9]
[3]
  cell viability: decreases the cell viability
[4]
  cell viability: decreases the cell viability
[1]; 0 Day after drug treatment
  Change in mouse weight: 100.0 ±0.0
[1]; 2 Days after drug treatment
  Change in mouse weight: 98.2 ±1.0
[1]; 5 Days after drug treatment
  Change in mouse weight: 94.7 ±2.5
[1]; 7 Days after drug treatment
  Change in mouse weight: 94.1 ±2.2
[1]; 9 Days after drug treatment
  Change in mouse weight: 99.7 ±2.7
[1]; 12 Days after drug treatment
  Change in mouse weight: 96.7 ±3.1
[1]; 14 Days after drug treatment
  Change in mouse weight: 97.3 ±2.8
[1]; 16 Days after drug treatment
  Change in mouse weight: 100.2 ±1.8
[1]; 19 Days after drug treatment
  Change in mouse weight: 98.3 ±2.9
[1]; 21 Days after drug treatment
  Change in mouse weight: 99.4 ±1.6
[1]; 23 Days after drug treatment
  Change in mouse weight: 100.2 ±2.6
[1]
  difference in body weight according to the administration of the drugs: almost no difference in body weight
[2]; intraperitoneal
  tumor size further reduced compared to the group intraperitoneally administered with the torilin: about 10%
  tumor size compared to the control group: statistically significantly smaller
[2]; [9]
  Tumor size increase (Vt−V0): 0.0±0.0
[2]; [10]
  Tumor size increase (Vt−V0): 53.1±17.9
[2]; [11]
  Inhibition rate (tumor size increase): 19.8%
[2]; [12]
  Tumor size increase (Vt−V0): 139.4±40.3
[2]; [13]
  Inhibition rate (tumor size increase): 22.9%
[2]; [14]
  Tumor size increase (Vt−V0): 312.6±71.9
[2]; [15]
  Inhibition rate (tumor size increase): 30.1%
[2]; [16]
  Tumor size increase (Vt−V0): 453.9±112.5
[2]; [17]
  Inhibition rate (tumor size increase): 35.1%
[2]; [18]
  Tumor size increase (Vt−V0): 648.7±112.0
[2]; [19]
  Inhibition rate (tumor size increase): 37.0%
[2]; [20]
  Tumor size increase (Vt−V0): 849.8±110.2
[2]; [21]
  Inhibition rate (tumor size increase): 38.3%
[2]; [22]
  Tumor size increase (Vt−V0): 1075.9±155.6
[2]; [23]
  Inhibition rate (tumor size increase): 40.1%
[2]; [24]
  Tumor size increase (Vt−V0): 1326.9±216.2
[2]; [25]
  Inhibition rate (tumor size increase): 35.2%
[2]; [26]
  Tumor weight at Day 21: 2.48 ± 0.308 g
[2]; [27]
  Tumor size increase (Vt−V0): 1690.3±144.2
[2]; [28]
  Inhibition rate (tumor size increase): 35.9%
[5]
  cell viability: decreases the cell viability
[6]
  cell viability: decreases the cell viability
[7]
  cell viability: decreases the cell viability
[8]
  cell viability: decreases the cell viability
Human fibroblast
  cell viability of human fibroblast: little change in the cell viability
